Publication PMC7587356, “High-Throughput Screening for Inhibitors of the SARS-CoV-2 Protease Using a FRET-Biosensor” (Molecules, 2020)
Where a name gives a salt, the structure may show the parent alone. Read-outs that look alike come from different tables or passages of the source.

Target: SARS-CoV-2 3CLpro (Severe acute respiratory syndrome coronavirus 2, UniProt P0DTD1)
Test: biochemical
Assay type: biochemical
Set-up: Replicate_1 / Replicate_2 / mean / mean (LOPAC_screen_w_protease): unit not given here
Conditions: for inhibition at 5 µM: 4 h
[1] = sheet LOPAC_screen_w_protease, primary screen with protease, compound at 5 µM, mean of two replicates
[2] = sheet LOPAC_screen_w_protease, primary screen with protease, compound at 5 µM, replicate 1
[3] = sheet LOPAC_screen_w_protease, primary screen with protease, compound at 5 µM, replicate 2
[4] = sheet LOPAC_screen_w_protease, LOPAC1280 primary screen with protease, 5 µM compound, mean of the two replicates, read-out: mean
[5] = sheet LOPAC_screen_w_protease, LOPAC1280 primary screen with protease, 5 µM compound, replicate 1, read-out: Replicate_1
[6] = sheet LOPAC_screen_w_protease, LOPAC1280 primary screen with protease, 5 µM compound, replicate 2, read-out: Replicate_2

With `Nc1ncnc2c1ncn2C1CCCC1` [9-cyclopentyladenine] the mean [1] was 2.587, the Replicate_1 [2] was 2.53 and the Replicate_2 [3] was 2.643.
In the case of `COc1cc2c(CCNC(C)=O)c[nH]c2cc1O` [6-Hydroxymelatonin], the mean (sheet LOPAC_screen_w_protease, primary screen with protease, mean of two replicates) is reported as 2.302, the Replicate_1 (sheet LOPAC_screen_w_protease, primary screen with protease, replicate 1) is reported as 3.2941 and the Replicate_2 (sheet LOPAC_screen_w_protease, primary screen with protease, replicate 2) is reported as 1.31.
In the case of `Oc1ccc2c3c1O[C@H]1c4oc5ccccc5c4C[C@@]4(O)[C@@H](C2)N(CC2CC2)CC[C@]314` [Naltriben methanesulfonate], the inhibition at 5 µM (read-out: Replicate_1) is reported as 4.4%, the inhibition at 5 µM (read-out: Replicate_2) is reported as 3% and the inhibition at 5 µM (read-out: mean) is reported as 3.7%.
`COC(=O)Nc1nc2ccc(C(=O)c3cccs3)cc2[nH]1` [Nocodazole] was tested, and the inhibition at 5 µM [4] was 4.68%, the inhibition at 5 µM [5] was 2.87% and the inhibition at 5 µM [6] was 6.49%.
Compound `O=c1[nH]c2ccccc2n1CCCN1CCN(C(c2ccccc2)c2ccccc2)CC1` [Oxatomide] has an inhibition at 5 µM [4] of 5.24%, an inhibition at 5 µM [5] of 4.62% and an inhibition at 5 µM [6] of 5.86%.
Compound `N#CC(C#N)=Cc1ccc(O)c(O)c1` [Tyrphostin 23] has an inhibition at 5 µM (sheet LOPAC_screen_w_protease, primary screen with protease, compound at 5 µM, mean of two replicates, read-out: mean) of 3.07%, an inhibition at 5 µM (sheet LOPAC_screen_w_protease, primary screen with protease, compound at 5 µM, replicate 1, read-out: Replicate_1) of 2.09% and an inhibition at 5 µM (sheet LOPAC_screen_w_protease, primary screen with protease, compound at 5 µM, replicate 2, read-out: Replicate_2) of 4.04%.
With `CN1C[C@@H](NS(=O)(=O)N(C)C)C[C@@H]2c3cccc4c3c(cn4C)C[C@H]21` [Mesulergine hydrochloride] the inhibition at 5 µM [4] was 5.36%, the inhibition at 5 µM [5] was 4.85% and the inhibition at 5 µM [6] was 5.86%.
`Cl.O=S(=O)(c1cccc2c(Cl)cccc12)N1CCCNCC1` [ML-9] gave a Replicate_1 of 1.4227, a Replicate_2 of 4.79 and a mean of 3.1064.
In the case of `Cc1cccc(C#Cc2ccccc2)n1.Cl`, the mean [1] is reported as 3.1043, the Replicate_1 [2] is reported as 2.241 and the Replicate_2 [3] is reported as 3.968.
In the case of `O=C1c2c(O)cc(O)cc2O[C@H](c2ccc(O)c(O)c2)[C@H]1O` [dihydroquercetin, reference compound], the “inhibition of 3CLpro in the primary screen” value (5 µM compound, 0.01% Triton X-100, 4 h endpoint, duplicate mean) is reported as 7.5%.
`CC(N)(C(=O)O)c1ccc(C(=O)O)cc1` (racemic) [(±)-alpha-Methyl-4-carboxyphenylglycine] gave a mean (sheet LOPAC_screen_w_protease, LOPAC1280 primary screen with protease, 5 µM compound, mean of the two replicates) of 4.794, a Replicate_1 (sheet LOPAC_screen_w_protease, LOPAC1280 primary screen with protease, 5 µM compound, replicate 1) of 3.648 and a Replicate_2 (sheet LOPAC_screen_w_protease, LOPAC1280 primary screen with protease, 5 µM compound, replicate 2) of 5.939.
In the case of `N[C@@H]1CONC1=O` (racemic) [DL-Cycloserine], the mean (sheet LOPAC_screen_w_protease, primary screen of LOPAC1280 at 5 µM with protease, mean of the two replicates) is reported as 3.186, the Replicate_1 (sheet LOPAC_screen_w_protease, primary screen of LOPAC1280 at 5 µM with protease, replicate 1) is reported as 2.383 and the Replicate_2 (sheet LOPAC_screen_w_protease, primary screen of LOPAC1280 at 5 µM with protease, replicate 2) is reported as 3.989.
`CCCn1c(=O)c2c(ncn2C)n(CCC)c1=O` [1,3-Dipropyl-7-methylxanthine] showed a mean [1] of 3.018, a Replicate_1 [2] of 3.463 and a Replicate_2 [3] of 2.572.
For `CC(C)(C)c1onc(OCP(=O)(O)O)c1CC(N)C(=O)O` (stereo not shown) [ATPO], the mean [1] was 3.0772, the Replicate_1 [2] was 4.002 and the Replicate_2 [3] was 2.152.
`CC(CN1c2ccccc2Sc2ccccc21)N(C)C` (stereo not shown) [Promethazine hydrochloride] gave an inhibition at 5 µM (sheet LOPAC_screen_w_protease, primary screen of LOPAC1280 at 5 µM with protease, mean of the two replicates, read-out: mean) of 3.55%, an inhibition at 5 µM (sheet LOPAC_screen_w_protease, primary screen of LOPAC1280 at 5 µM with protease, replicate 1, read-out: Replicate_1) of 1.74% and an inhibition at 5 µM (sheet LOPAC_screen_w_protease, primary screen of LOPAC1280 at 5 µM with protease, replicate 2, read-out: Replicate_2) of 5.35%.
With `Clc1ccc(C(c2ccccc2Cl)C(Cl)Cl)cc1` (stereo not shown) the mean (sheet LOPAC_screen_w_protease, primary screen with protease, 5 µM, mean of two replicates) was -0.2273, the Replicate_1 (sheet LOPAC_screen_w_protease, primary screen with protease, 5 µM, replicate 1) was 0.8298 and the Replicate_2 (sheet LOPAC_screen_w_protease, primary screen with protease, 5 µM, replicate 2) was -1.2843.
For `CN(C)CCC(c1ccccc1)c1ccccn1` (stereo not shown) [Pheniramine maleate], the inhibition at 5 µM (sheet LOPAC_screen_w_protease, primary screen with protease, 5 µM, mean of two replicates, read-out: mean) was -0.749%, the inhibition at 5 µM (sheet LOPAC_screen_w_protease, primary screen with protease, 5 µM, replicate 1, read-out: Replicate_1) was 0.594% and the inhibition at 5 µM (sheet LOPAC_screen_w_protease, primary screen with protease, 5 µM, replicate 2, read-out: Replicate_2) was -2.09%.
With `Cc1cn([C@H]2C=C[C@@H](CO)O2)c(=O)[nH]c1=O` [2',3'-didehydro-3'-deoxythymidine] the “mean (LOPAC_screen_w_protease)” value (LOPAC1280 primary screen with protease, 5 µM compound, mean of the two replicates) was 1.906, the “Replicate_1 (LOPAC_screen_w_protease)” value (LOPAC1280 primary screen with protease, 5 µM compound, replicate 1) was 2.073 and the “Replicate_2 (LOPAC_screen_w_protease)” value (LOPAC1280 primary screen with protease, 5 µM compound, replicate 2) was 1.738.
